Measurements published in patent US20180193327A1, “PROPHYLACTIC LEUKOTRIENE INHIBITOR AND IMPLANT DISPLACEMENT THERAPY FOR PREVENTION AND TREATMENT OF CAPSULAR CONTRACTURE IN SILICONE BREAST AUGMENTATION” (priority 2017, published 2018).
Several values for one entry are separate records, joined by “and”; a condition that tells them apart may be missing. Equal entries are not always repeated. Marks after values point to notes of the source that are not given here.

Key:
[1] = Liver function studies (transaminases) during Accolate therapy after capsulectomy and implant replacement; format: in vivo; details: at one month postoperatively; group of 279 patients, 20 mg twice daily
Procedure: (§1) Patients were treated with Accolate 20 mg twice daily, beginning the day after surgery. Patients with a history of hepatitis or liver disease were excluded. Patient compliance with the recommended dosage was encouraged, but patients were advised that they could discontinue the medication at any time that they experienced significant side effects. All patients receiving Accolate therapy underwent liver function studies 4 weeks after the initiation of Accolate therapy. […] Follow-up liver function studies were performed at 2-week intervals, until transaminases normalized. […] Liver function studies were repeated after 3 months of Accolate therapy for patients choosing to continue Accolate for a 6-month course.

[2] = tested on: capsular contracture in patients undergoing capsulectomy and silicone implant replacement; assay: Recurrence of capsular contracture (Baker scale) at one year after capsulectomy and silicone implant replacement; format: in vivo
Procedure: The study was performed with patients undergoing primary capsulectomy and silicone implant replacement for grade III and IV capsular contracture according to the methods depicted in FIGS. 3 and 4 of the present disclosure. […] Patients with a history of subglandular breast augmentation or those who underwent concurrent mastopexy revision or replacement with textured silicone breast implants were not included in the study. Enrolled patients underwent surgery with either an inframammary or periareolar incision.
One group of patients underwent capsulectomy and implant replacement without the use of leukotriene inhibitors. Another group of patients agreed to the off-label use of zafirlukast (Accolate; AstraZeneca Pharmaceuticals, Wilmington, Del.) and were treated beginning the day following the capsulectomy and implant replacement procedure. All patients were between the ages of 22 and 60 years of age and consented to the use of Mentor Memory Gel silicone gel breast implants with a smooth surface (Mentor Worldwide, Irvine, Calif.) and the off-label use of triple-antibiotic irrigation containing povidone-iodine (Betadine; Purdue Frederick Co., Norwalk, Conn.). In addition, a detailed informed consent was provided for the off-label use of Accolate. All patients were adequately informed of the risks, potential unknown benefits, cost, and potential side effects of leukotriene therapy with both verbal and written consent. Patients were informed that taking Accolate was voluntary and that they could discontinue this medication at any time for any reason.
Patients undergoing capsulectory and re-augmentation were treated with the incision initially used by the original surgeon, with either an inframmary or periareolar approach. All patients were surgically treated with complete periprosthetic capsulectomy. Patients were also treated with preoperative intravenous antibiotics, either a 1-g dose of cephazolin or 600 mg of clindamycin, selected based on allergy profiles. Before insertion of implants, triple-antibiotic irrigation [50,000 U of bacitracin, 1 g of Ancef (GlaxoSmithKline, Middlesex, United Kingdom), and 80 mg of gentamicin] with the addition of 50 ml of povidone-iodine in 500 ml of normal saline was used.
Hemovac ⅛ inch drains (Medline Industries, Rialto, Calif.) were used on all breasts receiving capsulectomy. All implants were placed with powder-free glove changes and inserted through a skin barrier/nipple shield using Tegaderm (3M, St. Paul, Minn.) dressings. Drains were left in place until drainage from one breast reached 30 ml/24 hrs, or 60 ml/24 hrs if both breasts were treated. The implant displacement therapy protocol was initiated two days after drains were removed.
as §1
All patients were evaluated at frequent follow-up appointments, including early postoperative visits, 1 month, 3 months, 6 months, and 1 year postoperatively. Capsular contracture was evaluated by the Baker scale. Patients with grade III or IV capsular contractures were considered as having clinical capsular contracture. Each patient was considered based on the number of their breasts associated with clinical capsular contracture ranging from none to two breasts. […]

[3] = Side effects and discontinuation reported by patients taking leukotriene inhibitors after primary augmentation; format: in vivo, patients (women); details: for Percentage of patients discontinuing the medication because of (minor) side effects or cost: female, 3 months
Procedure: (§2) Patients that were administered Singulair were treated according to the method described in FIGS. 1 and 2 of the present disclosure. First, patients were evaluated clinically to see if they were a candidate for breast augmentation with physical examination and medical history. The medical history review included discussion and review of liver health, current medications, and potential contraindications or drug interactions with leukotriene inhibitors. Patients were then provided an informed consent for the use of Singulair, 10 mg daily. The informed consent reviewed the potential benefits and risks of this medication which is taken as an off-label indication. Breast augmentation was performed with either smooth or textured silicone or saline implants. On the day following surgery, Singulair therapy is initiated, 10 mg QD. In the first week following surgery, the implant displacement therapy protocol was begun for patients with smooth surface silicone implants. The implant displacement therapy protocol may also be performed, if indicated, for patients with mildly textured breast implants, but not with moderately textured or highly textured devices. Monitoring for side effects from Singulair was conducted by educating patients as to the common side effects and discussing with patients noted side effects. Singulair can be discontinued if the side effects are significant. At thirty days postoperatively, the softness of the breast implants as well as the implant movement and position was evaluated to determine if capsular contracture was present. Two more months of Singulair was prescribed. Following three total months of therapy, the breasts were evaluated for the presence of capsular contracture. Patients without clinical capsular contracture, Baker I and II, were completed with therapy. Patients with clinical capsular contracture, either Baker III or IV, were treated with an additional three months of Singulair therapy as prescribed with the continuation of implant displacement therapy protocol. If patients declined to take Singulair or had side effects from the medication, implant displacement therapy protocol was continued and patients were offered 800 units-1000 units of Vitamin E daily in lieu of Singulair.
Patients that were administered Accolate were treated according to the method described in FIGS. 1 and 2 of the present disclosure. First, patients were evaluated clinically to see if they were a candidate for breast augmentation with physical examination and medical history. The medical history review included discussion and review of liver health, current medications, and potential contraindications or drug interactions with leukotriene inhibitors. Patients were then provided an informed consent for the use of Accolate (Zafirlukast), 20 mg twice daily. Patients were counseled to take the medication at least one hour before meals. The informed consent reviews the potential benefits and risks of this medication which is taken as an off-label indication. Breast augmentation was performed with either smooth or textured silicone or saline implants. On the day following surgery, Accolate therapy was initiated, 20 mg BID. In the first week following surgery, the implant displacement therapy protocol was begun for patients with smooth surface silicone implants. The implant displacement therapy protocol may also be performed, if indicated, for patients with mildly textured breast implants, but not with moderately textured or highly textured devices. […]

[4] = tested on: capsular contracture in patients undergoing primary silicone gel breast augmentation; assay: Capsular contracture (Baker scale) at one year after primary silicone gel breast augmentation, retrospective review; format: in vivo, patients (women); details: for % of Patients with Capsular Contracture: one year following primary silicone gel breast augmentation, Baker grade III or IV, three months therapy plus implant displacement protocol
Procedure: The study was performed with a retrospective review of 1122 consecutive women undergoing primary, silicone gel breast augmentation. Over time, the author added leukotriene inhibitor therapy to the postoperative treatment of patients. The first group of patients were treated without leukotriene therapy. Consecutive patients agreeing to the off-label use of leukotriene inhibitors were then studied. The second group of consecutive patients was offered Singulair therapy postoperatively while all other aspects of the surgical technique and care remained the same. Finally, the author offered Accolate therapy to the final group of patients undergoing breast augmentation.
Patients chose augmentation with either a periareolar or inframammary approach. Silicone breast augmentation procedures were performed using a standardized, dual plane technique. All patients were treated with preoperative intravenous antibiotics, either a one-gram dose of cephazolin or 600 mg of clindamycin, selected based on allergy profiles. Prior to insertion of implants, triple-antibioic irrigation (50,000 U bacitracin, 1 g Ancef, 80 mg gentamicin) with the addition of 50 ml of povidone-iodine in 500 ml of normal saline was utilized. All implants were placed with power-free glove changes, and inserted through a skin barrier/nipple shield using Tegaderm dressings. The implant displacement therapy protocol was initiated on post-operative day two.
as §2
Patients that were administered Accolate were treated according to the method described in FIGS. 1 and 2 of the present disclosure. First, patients were evaluated clinically to see if they were a candidate for breast augmentation with physical examination and medical history. […]

[5] = Voluntary discontinuation of Accolate after capsulectomy and implant replacement; format: in vivo; details: group of 279 patients
Procedure: as §1
A total of 447 consecutive patients were evaluated during the study period. A first group of 168 consecutive patients with encapsulated breast implants were studied and no leukotriene inhibitor therapy was offered postoperatively. This included 55 patients with bilateral capsular contracture. […] A second group of 279 consecutive patients with encapsulated breast implants were studied and treated with Accolate, including 87 patients with bilateral capsular contracture. There were 366 breasts with capsular contracture among patients in this group. […] Twelve patients discontinued the use of Accolate voluntarily based on cost or minor side effects and were excluded from the study.

[6] = FDA post-approval studies for the treatment of asthma; cited from earlier work
[7] = Liver function studies (transaminases) during Accolate therapy after primary augmentation; format: in vivo, patients (women)
Procedure: At thirty days postoperatively, blood testing was performed, with a measurement of transaminase levels and liver function studies. The softness of the breast implants as well as the implant movement and position was evaluated to determine if capsular contracture was present. Patients with normal liver function studies were provided two more months of Accolate therapy. At the completion of this, two additional months of treatment, the breasts were evaluated for the presence of capsular contracture. Patients without clinical capsular contracture, Baker I and II, were completed with therapy. Patients with clinical capsular contracture, either Baker III or IV, underwent repeat liver function studies. If transaminase levels were within normal limits, an additional three months of Accolate therapy was prescribed with the continuation of breast implant displacement therapy.
If liver function studies were abnormal and transaminase levels were elevated at any time in the treatment period, Accolate therapy was immediately discontinued and repeat liver function studies were performed every 14 days until normal levels were reached. If applicable, breast implant displacement therapy was continued and patients were offered 800 units-1000 units of Vitamin E daily in lieu of Accolate. Patients undergoing treatment with Accolate were monitored with a blood testing program. Following thirty days of treatment with Accolate, patients underwent liver function studies with evaluation of transaminase enzymes, including SGOT and SGPT, or ALT and AST. Normal ranges of enzyme levels were required to continue Accolate therapy.
All patients receiving Accolate therapy underwent liver function studies four weeks following the initiation of Accolate therapy. […] Follow-up liver function studies were performed at two week intervals, until transaminases normalized. […] Liver function studies were repeated after three months of Accolate therapy for patients choosing to continue Accolate for a six month course.

[8] = preoperative Grade III (172 breasts)
[9] = preoperative Grade IV (194 breasts)
[10] = preoperative Total III/IV (366 breasts)
[11] = one year following silicone gel breast augmentation
[12] = one year following silicone gel breast augmentation, patients with contracture/patients followed

COc1cc(C(=O)NS(=O)(=O)c2ccccc2C)ccc1Cc1cn(C)c2ccc(NC(=O)OC3CCCC3)cc12 [Accolate, Zafirlukast]
Number of patients with (mild) elevation of transaminases [1]: Two
Number of breasts with capsular contracture, postoperative Grade III [2, 8]: 7
Number of breasts with capsular contracture, postoperative Grade IV [2, 8]: 2
Number of breasts with capsular contracture, postoperative Total [2, 8]: 9
Percent of breasts with capsular contracture, postoperative Grade III [2, 8]: 4.1%
Percent of breasts with capsular contracture, postoperative Grade IV [2, 8]: 1.2%
Percent of breasts with capsular contracture, postoperative Total [2, 8]: 5.3%
Number of breasts with capsular contracture, postoperative Grade III [2, 9]: 15
Number of breasts with capsular contracture, postoperative Grade IV [2, 9]: 5
Number of breasts with capsular contracture, postoperative Total [2, 9]: 20
Percent of breasts with capsular contracture, postoperative Grade III [2, 9]: 7.8%
Percent of breasts with capsular contracture, postoperative Grade IV [2, 9]: 2.6%
Percent of breasts with capsular contracture, postoperative Total [2, 9]: 10.3%
Number of breasts with capsular contracture, postoperative Grade III [2, 10]: 22
Number of breasts with capsular contracture, postoperative Grade IV [2, 10]: 7
Number of breasts with capsular contracture, postoperative Total [2, 10]: 29
Percent of breasts with capsular contracture, postoperative Grade III [2, 10]: 6.0%
Percent of breasts with capsular contracture, postoperative Grade IV [2, 10]: 1.9%
Percent of breasts with capsular contracture, postoperative Total [2, 10]: 7.9%
Percentage of patients discontinuing the medication because of (minor) side effects or cost ([3]; human, in vivo): 6.2%
Irreversible side effects noted in the study ([3]; human, in vivo): no irreversible side effects
Patients who tolerated the medication well ([3]; primary augmentation study): ~95%
Reduction of the encapsulation risk ([4]; addition of the drug in the first three months following augmentation, versus no leukotriene inhibitor): over 50%
% of Patients with Capsular Contracture [4]: 2.19%*
Percentage of patients demonstrating capsular contracture, inframammary incision [4, 11]: 1.74%
Percentage of patients demonstrating capsular contracture, periareolar incision [4, 11]: 2.31% and 2.38%
Percentage of patients demonstrating capsular contracture, total (both incisions) [4, 11]: 2.19%
Number of patients demonstrating capsular contracture, inframammary incision [4, 12]: 2/115
Number of patients demonstrating capsular contracture, total (both incisions) [4, 12]: 8/375
Number of patients with grade III/IV capsular contracture at three months that improved to grade II with an additional three months of therapy ([4]; primary augmentation, six months of therapy in total): five
Capsular contracture rate compared with patients not treated with leukotriene inhibitors ([4]; three months of therapy after primary augmentation, result in words): significantly lower
Number of patients who discontinued voluntarily based on cost or minor side effects [5]: Twelve
Potential significant (uncommon) risks reported [6]: chemical hepatitis, liver failure, and even death
Percentage of patients with (mild) elevation of transaminases ([7]; at 30 days of treatment, 20 mg bid, medication discontinued): 0.58%
Number of patients with (mild) elevation of transaminases ([7]; at 30 days of treatment, out of 520 treated): Three and 3/520
Time for transaminases to return to normal after discontinuing the medication ([7]; two patients within two weeks, one patient within four weeks): four

CC(C)(O)c1ccccc1CC[C@@H](SCC1(CC(=O)O)CC1)c1cccc(/C=C/c2ccc3ccc(Cl)cc3n2)c1 [Singulair, Montelukast]
Percentage of patients discontinuing the medication because of (minor) side effects or cost ([3]; human, in vivo): 2.5%
Common side effects reported by patients ([3]; human, in vivo): headache, GI symptoms, fatigue, rash
% of Patients with Capsular Contracture [4]: 3.27%
Percentage of patients demonstrating capsular contracture, inframammary incision [4, 11]: 2.08%
Percentage of patients demonstrating capsular contracture, periareolar incision [4, 11]: 3.81%
Percentage of patients demonstrating capsular contracture, total (both incisions) [4, 11]: 3.27%
